Experiments:
FLT3 kinase = biological target: T1, FLT3 kinase (Homo sapiens, UniProt P36888); experiment: Competition binding assay, FLT3 Kd
T1 construct: made in house; host or cells: T7 phage display or HEK-293 cells
T1 sequence (P36888 27-993): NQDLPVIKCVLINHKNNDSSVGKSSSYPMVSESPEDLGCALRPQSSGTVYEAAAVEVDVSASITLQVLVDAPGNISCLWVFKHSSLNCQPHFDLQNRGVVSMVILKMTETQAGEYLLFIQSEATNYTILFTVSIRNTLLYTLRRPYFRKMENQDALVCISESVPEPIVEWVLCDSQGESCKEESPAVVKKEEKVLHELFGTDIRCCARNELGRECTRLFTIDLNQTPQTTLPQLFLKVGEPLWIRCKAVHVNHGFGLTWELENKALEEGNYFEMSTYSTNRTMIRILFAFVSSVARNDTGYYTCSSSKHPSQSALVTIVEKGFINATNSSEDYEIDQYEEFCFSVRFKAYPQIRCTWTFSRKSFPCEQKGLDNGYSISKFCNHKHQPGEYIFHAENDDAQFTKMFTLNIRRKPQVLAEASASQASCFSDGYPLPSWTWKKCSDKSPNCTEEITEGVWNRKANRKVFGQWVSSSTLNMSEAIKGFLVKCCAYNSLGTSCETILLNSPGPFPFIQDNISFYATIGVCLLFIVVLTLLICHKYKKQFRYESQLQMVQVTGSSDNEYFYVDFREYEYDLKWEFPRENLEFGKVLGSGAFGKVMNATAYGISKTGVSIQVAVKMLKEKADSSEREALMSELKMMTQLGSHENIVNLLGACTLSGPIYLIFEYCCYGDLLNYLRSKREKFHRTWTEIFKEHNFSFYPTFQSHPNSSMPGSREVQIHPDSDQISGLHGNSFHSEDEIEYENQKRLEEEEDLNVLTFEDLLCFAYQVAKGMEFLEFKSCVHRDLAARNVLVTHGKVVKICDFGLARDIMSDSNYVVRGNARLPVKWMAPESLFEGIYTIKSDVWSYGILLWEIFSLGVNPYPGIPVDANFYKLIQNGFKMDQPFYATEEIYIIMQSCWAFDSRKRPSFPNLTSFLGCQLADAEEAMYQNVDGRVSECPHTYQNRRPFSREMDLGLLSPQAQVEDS
Description: (§1) In certain embodiments, competition binding assays were performed as described in Fabian et al., Nature Biotechnology 2005, 23,329-336.
(§2) Competition binding assays used herein were developed, validated and performed as described in Fabian et al., Nature Biotechnology 2005, 23,329-336. Kinases were produced as fusions to T7 phage (See, Fabian et al. or WO04/015142) or alternatively, the kinases were expressed in HEK-293 cells and subsequently tagged with DNA for PCR detection (See, WO08/005,310). For the binding assays, streptavidin-coated magnetic beads were treated with biotinylated affinity ligands for 30 min at room temperature to generate affinity resins. The liganded beads were blocked with excess biotin and washed with blocking buffer (SeaBlock (Pierce), 1% BSA, 0.05% Tween 20, 1 mM DTT) to remove unbound ligand and to reduce non-specific binding. Binding reactions were assembled by combining kinase, liganded affinity beads, and test compounds in 1× binding buffer (20% SeaBlock, 0.17×PBS, 0.05% Tween 20, 6 mM DTT). Test compounds were prepared as 100× stocks in DMSO and diluted into the aqueous environment. Kds were determined using an eleven point threefold serial dilutions. DMSO or control compounds were was added to control assays lacking a test compound. Primary screen assays were performed in polypropylene 384-well plates in a final volume of 20-40 μL, while Kd determinations were performed in polystyrene 96-well plates in a final volume of 135 μL. The assay plates were incubated at room temperature with shaking for 1 hour to allow the binding reactions to reach equilibrium, and the affinity beads were washed extensively with wash buffer (1×PBS, 0.05% Tween 20) to remove unbound protein. The beads were then resuspended in elution buffer (1×PBS, 0.05% Tween 20, 0.5 μM non-biotinylated affinity ligand) and incubated at room temperature with shaking for 30 min. The kinase concentration in the eluates was measured by quantitative PCR.

KIT kinase = biological target: T2, KIT kinase (Homo sapiens, UniProt P10721); experiment: Competition binding assay, KIT Kd
T2 construct: made in house; host or cells: T7 phage display or HEK-293 cells
T2 sequence (P10721 26-976): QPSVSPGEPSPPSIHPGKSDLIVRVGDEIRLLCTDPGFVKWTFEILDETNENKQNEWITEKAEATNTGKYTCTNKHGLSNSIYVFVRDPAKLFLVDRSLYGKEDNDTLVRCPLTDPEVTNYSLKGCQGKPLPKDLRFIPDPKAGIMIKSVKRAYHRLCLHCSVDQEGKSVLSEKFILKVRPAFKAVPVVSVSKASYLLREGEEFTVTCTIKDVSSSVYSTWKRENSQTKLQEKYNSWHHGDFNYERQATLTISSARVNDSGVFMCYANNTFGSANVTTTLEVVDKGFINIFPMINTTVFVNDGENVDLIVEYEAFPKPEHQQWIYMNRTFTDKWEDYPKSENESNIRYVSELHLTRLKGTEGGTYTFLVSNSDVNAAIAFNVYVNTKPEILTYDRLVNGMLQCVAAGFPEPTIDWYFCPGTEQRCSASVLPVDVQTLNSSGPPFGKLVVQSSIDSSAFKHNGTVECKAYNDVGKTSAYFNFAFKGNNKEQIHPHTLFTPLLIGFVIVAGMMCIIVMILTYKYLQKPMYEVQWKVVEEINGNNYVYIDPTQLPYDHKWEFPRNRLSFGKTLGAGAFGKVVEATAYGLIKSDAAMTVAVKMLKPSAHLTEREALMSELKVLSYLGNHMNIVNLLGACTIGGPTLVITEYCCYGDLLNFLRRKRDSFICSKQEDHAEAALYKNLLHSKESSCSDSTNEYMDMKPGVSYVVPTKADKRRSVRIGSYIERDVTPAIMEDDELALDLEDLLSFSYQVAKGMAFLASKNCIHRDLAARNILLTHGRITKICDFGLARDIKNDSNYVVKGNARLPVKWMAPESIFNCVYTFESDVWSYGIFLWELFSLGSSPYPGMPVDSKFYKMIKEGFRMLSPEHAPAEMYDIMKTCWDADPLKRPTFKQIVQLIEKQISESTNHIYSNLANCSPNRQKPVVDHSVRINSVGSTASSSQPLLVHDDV
Description: as §1, §2

MV4-11 cells = experiment: MV4-11 cell proliferation assay (Alamar Blue); format: cell-based; conditions: Homo sapiens, MV4-11, 72 h, 3 days incubation
Description: The compounds disclosed herein were tested in an MV4-11 cell proliferation assay to determine their cellular potency against Flt3. MV4-11 cells carry ITD mutation within juxtamembrane domain of Flt3 kinase which renders the kinase constitutively active. […] This assay measures the potency of compounds as Flt3 inhibitors by measuring the reduction of Alamar Blue reagent by viable cells.
MV4-11 cells were grown in an incubator at 37° C. under 5% CO2 in Iscove's media (Celgro) with 10% FBS. The cell density was kept between 1e5 and 8e5 cells/mL.
On day one of the experiment, cells were harvested and spun at 500 g for 5 min at 4° C., the supernatant aspirated and the cells resuspended in Iscove's media with 0.5% FBS. Cell density was maintained at 7.5e5 to achieve maximum viability of the cells. The resuspended cells were incubated at 37° C. in 5% CO2 overnight.
On day two of the experiment, cells were diluted to 6.4e5/mL with Iscove's media with 0.5% FBS. 100 μL of the cell suspension (64,000 cells) were aliquoted into each well of a 96-well TC-treated plate. Compounds were added at 9 different concentrations, with half-log intervals alongside a control reference compound serving as a positive control. Final DMSO concentration was kept at 0.5% and final volume at 200 μL. The cells were then incubated at 37° C. under 5% CO2 for 3 days.
On day five of the experiment, 40 μL of Alamar Blue reagent was added to each well and the mixture was allowed to incubate for 3 hours. Alamar Blue fluorescence was measured using SoftMax Pro software at 560 nm (excitation) and 590 nm (emission). IC50s were generated as an average of duplicates and represents the concentration of test compound that achieves 50% inhibition of cellular proliferation compared to negative control.

CSF-1R kinase = biological target: T3, CSF-1R kinase (Homo sapiens, UniProt P07333); experiment: Competition binding assay, CSF-1R Kd
T3 construct: made in house; host or cells: T7 phage display or HEK-293 cells
T3 sequence (P07333 20-972): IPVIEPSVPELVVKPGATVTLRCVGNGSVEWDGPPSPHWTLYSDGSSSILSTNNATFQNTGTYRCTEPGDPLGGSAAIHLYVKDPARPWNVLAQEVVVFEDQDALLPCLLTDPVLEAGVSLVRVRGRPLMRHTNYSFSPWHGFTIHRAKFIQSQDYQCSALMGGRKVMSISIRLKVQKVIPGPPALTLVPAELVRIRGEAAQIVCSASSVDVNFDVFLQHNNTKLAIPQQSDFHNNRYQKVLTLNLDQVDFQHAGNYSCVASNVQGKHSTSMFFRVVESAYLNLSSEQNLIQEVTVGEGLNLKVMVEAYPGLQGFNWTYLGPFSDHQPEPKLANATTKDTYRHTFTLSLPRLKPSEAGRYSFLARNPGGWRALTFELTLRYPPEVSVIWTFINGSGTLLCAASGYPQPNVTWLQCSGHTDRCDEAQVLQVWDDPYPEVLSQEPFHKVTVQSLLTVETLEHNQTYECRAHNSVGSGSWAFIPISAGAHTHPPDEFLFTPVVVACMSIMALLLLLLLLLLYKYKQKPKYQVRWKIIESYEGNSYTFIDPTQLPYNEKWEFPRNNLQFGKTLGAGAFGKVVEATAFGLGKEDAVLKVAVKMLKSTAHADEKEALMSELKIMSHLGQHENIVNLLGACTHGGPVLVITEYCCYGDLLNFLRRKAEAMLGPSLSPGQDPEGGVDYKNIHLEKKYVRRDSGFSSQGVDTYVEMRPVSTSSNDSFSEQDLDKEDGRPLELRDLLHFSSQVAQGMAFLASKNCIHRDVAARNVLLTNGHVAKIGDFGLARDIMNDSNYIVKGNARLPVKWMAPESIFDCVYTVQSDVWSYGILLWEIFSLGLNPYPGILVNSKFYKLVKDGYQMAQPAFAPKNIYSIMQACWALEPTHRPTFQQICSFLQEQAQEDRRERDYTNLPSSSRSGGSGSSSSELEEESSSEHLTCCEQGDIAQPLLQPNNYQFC
Description: as §1, §2

Cc1nc(N)ccc1-c1ccc(CC(=O)Nc2cc(C(C)(C)C)on2)cc1 [Example 87, 5-(4-(2-(5-tert-butylisoxazol-3-ylamino)-2-oxoethyl)phenyl)-6-methylpyridin-2-aminium methanesulfonate]
Kd (FLT3 kinase): ≤ 1 nM
Kd (KIT kinase): 1 to 10 nM
IC50 (MV4-11 cells): 10 to 100 nM
Kd (CSF-1R kinase): 10 to 100 nM

CC(C)(CO)c1cc(NC(=O)Cc2ccc(-c3ccc(N)nc3)cc2)no1 [Example 88, 5-(4-(2-(5-(1-hydroxy-2-methylpropan-2-yl)isoxazol-3-ylamino)-2-oxoethyl)phenyl)pyridin-2-aminium methanesulfonate]
Kd (FLT3 kinase): ≤ 1 nM
Kd (KIT kinase): 1 to 10 nM
IC50 (MV4-11 cells): 1 to 10 nM
Kd (CSF-1R kinase): 10 to 100 nM

COCCNc1ccc(-c2ccc(CC(=O)Nc3cc(C(C)(C)C)on3)cc2)cn1 [Example 89, 5-(4-(2-(5-tert-butylisoxazol-3-ylamino)-2-oxoethyl)phenyl)-N-(2-methoxyethyl)pyridin-2-aminium methanesulfonate]
Kd (FLT3 kinase): ≤ 1 nM
Kd (KIT kinase): 1 to 10 nM
IC50 (MV4-11 cells): 1 to 10 nM
Kd (CSF-1R kinase): ≤ 10 nM

Cn1nc(C(C)(C)CF)cc1NC(=O)Nc1ccc(-c2ccc(N)nc2)cc1 [Example 90, 5-(4-(3-(3-(1-fluoro-2-methylpropan-2-yl)-1-methyl-1H-pyrazol-5-yl)ureido)phenyl)pyridin-2-aminium acetate]
Kd (FLT3 kinase): 1 to 10 nM
Kd (KIT kinase): 1 to 10 nM
IC50 (MV4-11 cells): 100 to 500 nM
Kd (CSF-1R kinase): 10 to 100 nM

CC(C)(C)c1cc(NC(=O)Cc2ccc(-c3cnc(N)c(C#N)c3)cc2)no1 [Example 93, 5-(4-(2-(5-tert-butylisoxazol-3-ylamino)-2-oxoethyl)phenyl)-3-cyanopyridin-2-aminium methanesulfonate]
Kd (FLT3 kinase): 1 to 10 nM
Kd (KIT kinase): 1 to 10 nM
IC50 (MV4-11 cells): ≤ 1 nM
Kd (CSF-1R kinase): ≤ 10 nM

CC(C)(C)c1cc(NC(=O)Cc2ccc(-c3cnc(N)c(C(N)=O)n3)cc2)no1 [Example 114, 5-(4-(2-(5-tert-butylisoxazol-3-ylamino)-2-oxoethyl)phenyl)-3-carbamoylpyrazin-2-aminium methanesulfonate]
Kd (FLT3 kinase): ≤ 1 nM
Kd (KIT kinase): ≤ 1 nM
IC50 (MV4-11 cells): ≤ 1 nM
Kd (CSF-1R kinase): ≤ 10 nM

CC(C)(C)c1cc(NC(=O)Cc2ccc(-c3cnc4c(c3)CCCN4)cc2)no1 [Example 120, 6-(4-(2-((5-(tert-butyl)isoxazol-3-yl)amino)-2-oxoethyl)phenyl)-1,2,3,4-tetrahydro-1,8-naphthyridin-1-ium methanesulfonate]
Kd (FLT3 kinase): ≤ 1 nM
Kd (KIT kinase): 1 to 10 nM
IC50 (MV4-11 cells): 1 to 10 nM
Kd (CSF-1R kinase): ≤ 10 nM

CS(=O)(=O)O.Nc1ncc(-c2ccc(CC(=O)Nc3cc(C4(C(F)(F)F)CC4)on3)cc2)cc1F [Example 127, 3-fluoro-5-(4-(2-oxo-2-(5-(1-(trifluoromethybcyclopropybisoxazol-3-ylamino)ethyl)phenyl)pyridin-2-aminium methanesulfonate]
Kd (FLT3 kinase): ≤ 1 nM
Kd (KIT kinase): 1 to 10 nM
IC50 (MV4-11 cells): ≤ 1 nM
Kd (CSF-1R kinase): ≤ 10 nM

CC(C)(C)c1cc(NC(=O)Cc2ccc(-c3ccc(N)nc3C(F)(F)F)cc2)no1.CS(=O)(=O)O [Example 129, 5-(4-(2-(5-tert-butylisoxazol-3-ylamino)-2-oxoethyl)phenyl)-6-(trifluoromethybpyridin-2-aminium methanesulfonate]
Kd (FLT3 kinase): 10 to 100 nM
Kd (KIT kinase): 10 to 100 nM
IC50 (MV4-11 cells): 100 to 500 nM
Kd (CSF-1R kinase): > 500 nM

CS(=O)(=O)O.Cc1cc(-c2ccc(CC(=O)Nc3cc(C4(C(F)(F)F)CC4)on3)cc2)cnc1N [Example 130, 3-methyl-5-(4-(2-oxo-2-(5-(1-(trifluoromethybcyclopropybisoxazol-3-ylamino)ethyl)phenyl)pyridin-2-aminium methanesulfonate]
Kd (FLT3 kinase): ≤ 1 nM
Kd (KIT kinase): 1 to 10 nM
IC50 (MV4-11 cells): ≤ 1 nM
Kd (CSF-1R kinase): ≤ 10 nM

Cn1cc(-c2cc(-c3ccc(CC(=O)Nc4cc(C(C)(C)C)on4)cc3)cnc2N)cn1 [Example 154]
Kd (FLT3 kinase): ≤ 1 nM
Kd (KIT kinase): 1 to 10 nM
IC50 (MV4-11 cells): 1 to 10 nM
Kd (CSF-1R kinase): 10 to 100 nM

CC(=O)OCC1(c2cc(NC(=O)Cc3ccc(-c4ccc(N)nc4)cc3)no2)CC1 [Example 169]
Kd (FLT3 kinase): ≤ 1 nM
Kd (KIT kinase): 1 to 10 nM
IC50 (MV4-11 cells): 10 to 100 nM
Kd (CSF-1R kinase): ≤ 10 nM

CC1(c2cc(NC(=O)Cc3ccc(-c4cnc(N)cc4F)cc3)no2)CC1 [Example 170]
Kd (FLT3 kinase): ≤ 1 nM
Kd (KIT kinase): 1 to 10 nM
IC50 (MV4-11 cells): 1 to 10 nM
Kd (CSF-1R kinase): ≤ 10 nM

CCC1(c2cc(NC(=O)Cc3ccc(-c4ccc(N)nc4)cc3)no2)CC1 [Example 171]
Kd (FLT3 kinase): ≤ 1 nM
Kd (KIT kinase): 1 to 10 nM
IC50 (MV4-11 cells): ≤ 1 nM
Kd (CSF-1R kinase): ≤ 10 nM

CC1(c2cc(NC(=O)Cc3ccc(-c4cnc(N)cc4Cl)cc3)no2)CC1 [Example 172]
Kd (FLT3 kinase): ≤ 1 nM
Kd (KIT kinase): ≤ 1 nM
IC50 (MV4-11 cells): 1 to 10 nM
Kd (CSF-1R kinase): ≤ 10 nM

CC(C)(C)c1cc(NC(=O)C(N)c2ccc(-c3ccc(N)nc3)cc2)no1 (stereo not shown) [Example 173]
Kd (FLT3 kinase): 1 to 10 nM
Kd (KIT kinase): 10 to 100 nM
IC50 (MV4-11 cells): 100 to 500 nM
Kd (CSF-1R kinase): > 500 nM

Cc1nc(-c2ccc(CC(=O)Nc3cc(C(C)(C)C)on3)cc2)c(C)nc1N [Example 174]
Kd (FLT3 kinase): ≤ 1 nM
Kd (KIT kinase): 1 to 10 nM
IC50 (MV4-11 cells): 10 to 100 nM
Kd (CSF-1R kinase): 100 to 500 nM

CC(C)(C)Sc1cc(-c2ccc(CC(=O)Nc3cc(C(C)(C)C)on3)cc2)cnc1N [Example 175]
Kd (FLT3 kinase): 1 to 10 nM
Kd (KIT kinase): 10 to 100 nM
IC50 (MV4-11 cells): 10 to 100 nM
Kd (CSF-1R kinase): 100 to 500 nM

CC(C)(C)c1cc(NC(=O)Cc2ccc(-c3cnc(N)c(S(=O)(=O)C(C)(C)C)c3)cc2)no1 [Example 176]
Kd (FLT3 kinase): ≤ 1 nM
Kd (KIT kinase): 1 to 10 nM
IC50 (MV4-11 cells): 10 to 100 nM
Kd (CSF-1R kinase): > 500 nM

CC1(c2cc(NC(=O)Cc3ccc(-c4cc(F)c(N)nc4F)cc3)no2)CC1 [Example 177]
Kd (FLT3 kinase): ≤ 1 nM
Kd (KIT kinase): 1 to 10 nM
IC50 (MV4-11 cells): ≤ 1 nM
Kd (CSF-1R kinase): ≤ 10 nM

CC(C)(C)c1cc(NC(=O)C(F)(F)c2ccc(-c3ccc(N)nc3)cc2)no1 [Example 178]
Kd (FLT3 kinase): ≤ 1 nM
Kd (KIT kinase): 1 to 10 nM
IC50 (MV4-11 cells): 1 to 10 nM
Kd (CSF-1R kinase): ≤ 10 nM

CC(C)(C)c1cc(NC(=O)Cc2ccc(-c3cnc(N)c([S+]([O-])C(C)(C)C)c3)cc2)no1 (stereo not shown) [Example 179]
Kd (FLT3 kinase): ≤ 1 nM
Kd (KIT kinase): 1 to 10 nM
IC50 (MV4-11 cells): 1 to 10 nM
Kd (CSF-1R kinase): 100 to 500 nM
